Assay results published in the NIST ThermoML archive (doi:10.1016/j.jct.2006.07.022).
± gives the expanded uncertainty stated by the source.

Assays:
[1] = refractive index (Na D-line) (dimensionless); conditions: 298.15 K; 101.33 kPa; Liquid; Standard Abbe refractometry
[2] = xn = mol fraction of the nth substance listed; conditions: 101 kPa, Liquid

Work on `c1ccccc1` [benzene] yielded a refractive index [1] of 1.5009 ± 0.0007.
`c1ccccc1` [benzene] + CN(C)C=O gave a mass density ([2]; 293.15 K, x1 = 1) of 878.96 ± 0.33 kg/m3, a mass density ([2]; 303.15 K, x1 = 1) of 868.21 ± 0.34 kg/m3 and a mass density ([2]; 313.15 K, x1 = 1) of 857.4 ± 0.36 kg/m3. For the same molecule, the mass density ([2]; 323.15 K, x1 = 1) was 846.55 ± 0.38 kg/m3, the mass density ([2]; 333.15 K, x1 = 1) was 835.66 ± 0.39 kg/m3 and the mass density ([2]; 343.15 K, x1 = 1) was 824.71 ± 0.41 kg/m3.
Molecule `CN(C)C=O` [dimethylformamide] has a refractive index [1] of 1.4307 ± 0.0007.
With `CN(C)C=O` [dimethylformamide] + CCc1ccccc1 the mass density ([2]; 293.15 K, x2 = 0) was 948.58 ± 0.25 kg/m3, the mass density ([2]; 303.15 K, x2 = 0) was 939.46 ± 0.26 kg/m3 and the mass density ([2]; 313.15 K, x2 = 0) was 930.12 ± 0.28 kg/m3. The mass density ([2]; 323.15 K, x2 = 0) was 920.55 ± 0.29 kg/m3, the mass density ([2]; 333.15 K, x2 = 0) was 910.75 ± 0.3 kg/m3 and the mass density ([2]; 343.15 K, x2 = 0) was 900.73 ± 0.32 kg/m3. For the same molecule, the mass density ([2]; 353.15 K, x2 = 0) was 890.48 ± 0.34 kg/m3.
In the case of `CCc1ccccc1` [ethylbenzene], the refractive index [1] is reported as 1.4962 ± 0.0008.
`Cc1ccccc1` [toluene] gave a refractive index [1] of 1.4965 ± 0.0008.
In the case of `Cc1ccccc1` [toluene] + CN(C)C=O, the mass density ([2]; 293.15 K, x1 = 1) is reported as 866.8 ± 0.94 kg/m3, the mass density ([2]; 303.15 K, x1 = 1) is reported as 857.53 ± 0.94 kg/m3 and the mass density ([2]; 313.15 K, x1 = 1) is reported as 848.23 ± 0.94 kg/m3. It also gave a mass density ([2]; 323.15 K, x1 = 1) of 838.91 ± 0.94 kg/m3, a mass density ([2]; 333.15 K, x1 = 1) of 829.55 ± 0.95 kg/m3 and a mass density ([2]; 343.15 K, x1 = 1) of 820.17 ± 0.95 kg/m3. For the same molecule, the mass density ([2]; 353.15 K, x1 = 1) was 810.77 ± 0.95 kg/m3.
